The text below walks through data of BindingDB's records for doi:10.1021/jm0491492 (Uppsala University, 2005).

The target of this experiment is Type-2 angiotensin II receptor (Sus scrofa). Description: Displacement of [125I]-Ang II from angiotensin II receptor type 2 in pig uterus myometrium. In general terms: Displacement assays read how much labelled ligand stays bound in the presence of the test substance.
`CC(C)[C@H](NC(=O)[C@H](CCCNC(=N)N)NC(=O)[C@@H](N)CC(=O)O)C(=O)Nc1cccc2c1N[C@@H](Cc1ccc(O)cc1)C(=O)N(CC(=O)N[C@@H](Cc1cnc[nH]1)C(=O)N1CCC[C@H]1C(=O)N[C@@H](Cc1ccccc1)C(=O)O)C2` [(3S)-3-amino-3-{[(1S)-1-{[(1S)-1-{[(2S)-4-({[(2S)-1-[(2S)-2-{[(1S)-1-carboxy-2-phenylethyl]carbamoyl}pyrrolidin-1-yl]-3-(1H-imidazol-4-yl)-1-oxopropan-2-yl]carbamoyl}methyl)-2-[(4-hydroxyphenyl)methyl]-3-oxo-2,3,4,5-tetrahydro-1H-1,4-benzodiazepin-9-yl]carbamoyl}-2-methylpropyl]carbamoyl}-4-[(diaminomethylidene)amino]butyl]carbamoyl}propanoic acid] showed a Ki of 0.8 nM.

For the compound `CC(C)[C@H](NC(=O)[C@H](C)NC(=O)[C@@H](N)CC(=O)O)C(=O)Nc1cccc2c1N[C@@H](Cc1ccc(O)cc1)C(=O)N(CC(=O)N[C@@H](Cc1cnc[nH]1)C(=O)N1CCC[C@H]1C(=O)N[C@@H](Cc1ccccc1)C(=O)O)C2` [(3S)-3-amino-3-{[(1S)-1-{[(1S)-1-{[(2S)-4-({[(2S)-1-[(2S)-2-{[(1S)-1-carboxy-2-phenylethyl]carbamoyl}pyrrolidin-1-yl]-3-(1H-imidazol-4-yl)-1-oxopropan-2-yl]carbamoyl}methyl)-2-[(4-hydroxyphenyl)methyl]-3-oxo-2,3,4,5-tetrahydro-1H-1,4-benzodiazepin-9-yl]carbamoyl}-2-methylpropyl]carbamoyl}ethyl]carbamoyl}propanoic acid], the Ki was 9.3 nM. In the case of `N=C(N)NCCC[C@H](NC(=O)[C@@H](N)CC(=O)O)C(=O)Nc1cccc2c1N[C@@H](Cc1ccc(O)cc1)C(=O)N(CC(=O)N[C@@H](Cc1cnc[nH]1)C(=O)N1CCC[C@H]1C(=O)N[C@@H](Cc1ccccc1)C(=O)O)C2` [(3S)-3-amino-3-{[(1S)-1-{[(2S)-4-({[(2S)-1-[(2S)-2-{[(1S)-1-carboxy-2-phenylethyl]carbamoyl}pyrrolidin-1-yl]-3-(1H-imidazol-4-yl)-1-oxopropan-2-yl]carbamoyl}methyl)-2-[(4-hydroxyphenyl)methyl]-3-oxo-2,3,4,5-tetrahydro-1H-1,4-benzodiazepin-9-yl]carbamoyl}-4-[(diaminomethylidene)amino]butyl]carbamoyl}propanoic acid], the Ki amounted to 2.8 nM.

A word on the Ki: it is the equilibrium dissociation constant of an inhibitor or competing ligand from its target.
